According to patent US10857199B2, “Compounds and methods for increasing hair growth” (The University of Kansas, priority 2014, dated 2020):

Columns and labels:
[1] = castrated male mice
Procedure: (§1) To exploit this pathway we used B6CBAF1/J hybrid male mice reported to be susceptible to ADA. As a control and to remove background testosterone effects all the B6CBAF1/J hybrid male mice were castrated and split into two groups (n=6). The first group served as controls (Vehicle) and the second experimental group was treated with 5-α-dihydrotestosterone (5α-DHT). The 5α-DHT was administered by sub-dermal transplantation of slow release pellets purchased from Innovative Research of America. The control group was also transplanted with identically formulated placebo pellets (without 5α-DHT). Both pellets were transplanted below the right ear using a small incision that was sealed with staples. Specifically, two 21 day release and one 90 day release pellets containing 10 mg of 5α-DHT respectively were used for each experimental mouse with corresponding placebo pellets for the controls (n=6). Hair loss of the mice and the effects of 5α-DHT were then monitored over 5 months as described below.
FIGS. 8A-8B includes DEXA analysis pictures of representative Vehicle and 5α-DHT male castrated mice showing increased bone and lean mass with treated mice. […] Two-way ANOVA analysis of the temporal weight change show significant differences for 5α-DHT treatment (p<0.0001) and change over time (p<0.0001) with no significant interaction (n=6). This confirms 5α-DHT pellet infusion was effective (see also below).
Detailed quantitative analyses of the DEXA experiments are presented graphically in FIG. 9. […] Total and femur analyses are shown and the numbers shown on the histograms above the asterisks (*) are p values calculated using a two-tailed unpaired t test at 95% confidence intervals. A P<0.05 is considered significant and NS indicates not significant.

[2] = femurs, 3D μCT, castrated male mice
Procedure: as §1

[3] = system: hair loss; conditions: castrated male mice
Procedure: as §1

[4] = system: hair density; conditions: hair plucked from defined ROI, castrated male mice, vs placebo
Text: A second method was then used to directly quantitate hair density, hair quality and vellus hair occurrence. Specifically, mice were sacrificed and the pelts removed and fixed in buffered formalin for histology. Also, a plastic template with a fixed portal was used to demarcate a defined and identical region of interest (ROI) between the ears and above the shoulder blades (FIG. 12). Hair was then plucked from this region weighed and microscopically analyzed. […] A plastic template with portal removed was used to facilitate hair removal from defined region of interest (ROI). Top pictures comparing control (right) and experimental (left) hairs removed from the ROI. […] The numbers shown on the histograms above the asterisk (*) is the p value calculated using a two-tailed unpaired t test at 95% confidence intervals. A P<0.05 is considered significant.

Compound: C[C@]12CCC(=O)C[C@@H]1CC[C@@H]1[C@@H]2CC[C@]2(C)[C@@H](O)CC[C@@H]12 [5α-DHT, 5-α-dihydrotestosterone]
- Bone Mineral Content [BMC] ([1]; DEXA, vs placebo pellets): major increases
- Bone mineral Density [BMD] ([1]; DEXA, vs placebo pellets): major increases
- lean mass ([1]; DEXA, vs vehicle): increased
- lean/fat mass ratios ([1]; DEXA, vs vehicle): increased
- weight ([1]; sub-dermal slow release pellets, 5 months, vs placebo pellets): major increases
- cancellous bone and trabecular architecture at the top of the epiphyses [2]: major increases
- hair loss from head and shoulder blade region (inverse integrated pixel density) ([3]; 5 months, inflection point after 2 months): accelerated hair loss
- hair at the pellet implant site ([3]; photographs, vs placebo pellet): major hair loss
- hair density, size and quality [4]: significantly reduced
